Measurements: patent publication US11884750B2, “Cationic cell penetrating peptides and the use thereof” (CELLTROY CO., LTD., priority 2021, dated 2024)
Entries after “also recorded” stand apart in the source; their conditions may differ.

Tests used:
HaCAT cells = assay: Cell penetration efficiency in human epidermal (skin) cells, 4 μM, flow cytometry; type: cell-based; details: 4 μM FITC-conjugated CPP, one hour
Procedure, shortened: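 HaCAT cells […] were grown 24 h in DMEM with 10% FBS at 37 °C, then treated 1 h with 4 μM FITC-conjugated peptide or FITC-TAT. Cells were trypsinised and washed in D-PBS. Intracellular fluorescence was read by flow cytometry.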

SH-SY5Y cells = assay: Cell penetration efficiency in human neuroblastoma cells, 4 μM, flow cytometry; type: cell-based; details: one hour; for cell permeability compared with TAT: 4 μM FITC-conjugated CPP, flow cytometry; for Score / Score/TAT: 4 μM FITC-conjugated peptide; for Score: intracellular fluorescence by flow cytometry; for Score/TAT: ratio to FITC-conjugated TAT
Procedure, shortened: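 SH-SY5Y cells cultured 24 h in DMEM/10% FBS at 37 °C, 5% CO2, then exposed to 4 μM FITC-conjugated peptide (FITC-TAT as reference) for 1 h. After trypsinisation and D-PBS washes, intracellular fluorescence measured by flow cytometry.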

macrophages = assay: Cell penetration efficiency using macrophages; type: cell-based; details: macrophages differentiated from THP1 cells, 4 μM FITC-conjugated CPP, one hour
Protocol: (§1) Subsequently, to confirm whether the CPPs according to the present invention show excellent cell permeability into different types of cells/tissues, various tissue-derived cells were treated with biologically active molecule-conjugated CPPs to compare its delivery capacity with TAT. As in the previous examples, each cell was aliquoted in a plate at an appropriate density, and cultured in a 10% FBS-added medium under a condition of 37° C. and 5% CO2 for 24 hours. Subsequently, the cells were treated with 4 μM each of FITC-conjugated CPP or FITC-conjugated TAT and incubated for one hour. After the completion of the incubation, the cells were transferred to a sterile tube using 0.25% trypsin and centrifuged to remove the medium. Afterward, the cells were washed with 500 μL of D-PBS twice to completely remove the medium, and finally, resuspended in 400 μL of D-PBS and intracellular fluorescence was measured by flow cytometry (FACSCanto II). Macrophages were used by inducing differentiation from THP1 cells. Specifically, the THP-1 cells were aliquoted on a cover glass laid on a 24-well plate to have a density of 6×10^4 cells/well, and after the addition of 100 ng/mL of phorbol 12-myristate 13-acetate (PMA), the cells were incubated for 48 hours to induce the differentiation into macrophages. After 48 hours, the cells were washed with Dulbecco's phosphate buffered saline (DPBS) to perform an experiment.

monocytes = assay: Cell penetration efficiency using monocytes; type: cell-based; details: 4 μM FITC-conjugated CPP, one hour
Protocol: as §1, with “II).” for “II). Macrophages were used by inducing differentiation from THP1 cells. Specifically, the THP-1 cells were aliquoted on a cover glass laid on a 24-well plate to have a density of 6×10^4 cells/well, and after the addition of 100 ng/mL of phorbol 12-myristate 13-acetate (PMA), the cells were incubated for 48 hours to induce the differentiation into macrophages. After 48 hours, the cells were washed with Dulbecco's phosphate buffered saline (DPBS) to perform an experiment.”

HGB cell line = assay: Cell penetration efficiency in glioblastoma cells; type: cell-based, human; details: 4 μM FITC-conjugated CPP, one hour
Procedure, shortened: (§2)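 Following seeding and 24 h growth (37 °C, 5% CO2, 10% FBS medium), cells took up 4 μM FITC-conjugated peptide over 1 h, TAT serving as reference. Residual medium was removed by two D-PBS washes after trypsinisation. Intracellular fluorescence was read on a flow cytometer.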

HDF cell line = assay: Cell penetration efficiency in skin cells (HDF); type: cell-based; details: 4 μM FITC-conjugated CPP, one hour
Procedure, shortened: as §2

HeLa cell line = assay: Cell penetration efficiency using cervical cancer cells; type: cell-based; details: 4 μM FITC-conjugated CPP, one hour
Procedure, shortened: as §2

HT1080 cell line = assay: Cell penetration efficiency using connective tissue (fibrosarcoma) cells; type: cell-based; details: 4 μM FITC-conjugated CPP, one hour
Procedure, shortened: as §2

HepG2 cell line = assay: Cell penetration efficiency using liver cells; type: cell-based; details: 4 μM FITC-conjugated CPP, one hour
Protocol: as §1, with “II).” for “II). Macrophages were used by inducing differentiation from THP1 cells. Specifically, the THP-1 cells were aliquoted on a cover glass laid on a 24-well plate to have a density of 6×10^4 cells/well, and after the addition of 100 ng/mL of phorbol 12-myristate 13-acetate (PMA), the cells were incubated for 48 hours to induce the differentiation into macrophages. After 48 hours, the cells were washed with Dulbecco's phosphate buffered saline (DPBS) to perform an experiment.”

HEK293T cell line = assay: Cell penetration efficiency using kidney cells; type: cell-based; details: 4 μM FITC-conjugated CPP, one hour
Procedure, shortened: as §2

A-427 cell line = assay: Cell penetration efficiency using lung cells; type: cell-based; details: A-427 lung cells, 4 μM FITC-conjugated CPP, one hour
Procedure, shortened: as §2

SNU-46 cell line = assay: Cell penetration efficiency using laryngeal cells; type: cell-based; details: SNU-46 laryngeal cells, 4 μM FITC-conjugated CPP, one hour
Procedure, shortened: as §2

Sequence: WPRRRLRLRHRARR [C113]
- cell permeability compared with TAT (HaCAT cells): higher cell permeability
- cell permeability compared with TAT (SH-SY5Y cells): higher cell permeability
- Score (SH-SY5Y cells): 1278
- Score/TAT (SH-SY5Y cells): 2.462
- cell permeability compared with TAT (macrophages): higher cell permeability
- cell permeability compared with TAT (monocytes): higher cell permeability
- cell permeability compared with TAT (HGB cell line): higher cell permeability
- cell permeability compared with TAT (HDF cell line): higher cell permeability
- cell permeability compared with TAT (HeLa cell line): higher cell permeability
- cell permeability compared with TAT (HT1080 cell line): higher cell permeability
- cell permeability compared with TAT (HepG2 cell line): higher cell permeability
- cell permeability compared with TAT (HEK293T cell line): higher cell permeability
- cell permeability compared with TAT (A-427 cell line): higher cell permeability
- cell permeability compared with TAT (SNU-46 cell line): higher cell permeability

Sequence: IPLRRLMRRARRHR [C112]
- cell permeability compared with TAT (HaCAT cells): higher cell permeability
- cell permeability compared with TAT (SH-SY5Y cells): higher cell permeability
- Score (SH-SY5Y cells): 946
- Score/TAT (SH-SY5Y cells): 1.823
- cell permeability compared with TAT (macrophages): higher cell permeability
- cell permeability compared with TAT (monocytes): higher cell permeability
- cell permeability compared with TAT (HGB cell line): higher cell permeability
- cell permeability compared with TAT (HDF cell line): higher cell permeability
- cell permeability compared with TAT (HeLa cell line): higher cell permeability
- cell permeability compared with TAT (HepG2 cell line): higher cell permeability
- cell permeability compared with TAT (SNU-46 cell line): higher cell permeability

Sequence: KPRKKKKKRKNKKI [C12]
- cell permeability compared with TAT (HaCAT cells): increased cell permeability
- cell permeability compared with TAT (SH-SY5Y cells): higher cell permeability
- Score (SH-SY5Y cells): 2062
- Score/TAT (SH-SY5Y cells): 3.973
- cell permeability compared with TAT (macrophages): higher cell permeability
- cell permeability compared with TAT (HGB cell line): higher cell permeability
- cell permeability compared with TAT (HDF cell line): higher cell permeability
- cell permeability compared with TAT (HeLa cell line): higher cell permeability
- cell permeability compared with TAT (HT1080 cell line): higher cell permeability
- cell permeability compared with TAT (HepG2 cell line): higher cell permeability
- cell permeability compared with TAT (HEK293T cell line): higher cell permeability
- cell permeability compared with TAT (A-427 cell line): higher cell permeability
- cell permeability compared with TAT (SNU-46 cell line): higher cell permeability

Sequence: RPRRKKQIKRLCKR [C16]
- cell permeability compared with TAT (HaCAT cells): increased cell permeability; also recorded: higher cell permeability
- cell permeability compared with TAT (SH-SY5Y cells): higher cell permeability
- Score (SH-SY5Y cells): 1680
- Score/TAT (SH-SY5Y cells): 3.237
- cell permeability compared with TAT (macrophages): higher cell permeability
- cell permeability compared with TAT (HGB cell line): higher cell permeability
- cell permeability compared with TAT (HDF cell line): higher cell permeability
- cell permeability compared with TAT (HeLa cell line): higher cell permeability
- cell permeability compared with TAT (HT1080 cell line): higher cell permeability
- cell permeability compared with TAT (HepG2 cell line): higher cell permeability
- cell permeability compared with TAT (HEK293T cell line): higher cell permeability
- cell permeability compared with TAT (A-427 cell line): higher cell permeability
- cell permeability compared with TAT (SNU-46 cell line): higher cell permeability

Sequence: SRRRLRRFLRRIAP [C185]
- cell permeability compared with TAT (HaCAT cells): higher cell permeability
- cell permeability compared with TAT (SH-SY5Y cells): higher cell permeability
- Score (SH-SY5Y cells): 1684
- Score/TAT (SH-SY5Y cells): 3.245
- cell permeability compared with TAT (macrophages): higher cell permeability
- cell permeability compared with TAT (monocytes): higher cell permeability
- cell permeability compared with TAT (HGB cell line): higher cell permeability
- cell permeability compared with TAT (HDF cell line): higher cell permeability
- cell permeability compared with TAT (HeLa cell line): higher cell permeability
- cell permeability compared with TAT (HepG2 cell line): higher cell permeability
- cell permeability compared with TAT (HEK293T cell line): higher cell permeability
- cell permeability compared with TAT (SNU-46 cell line): higher cell permeability

Sequence: AARIRALRRRRRRP [C72]
- cell permeability compared with TAT (HaCAT cells): higher cell permeability
- cell permeability compared with TAT (SH-SY5Y cells): higher cell permeability
- Score (SH-SY5Y cells): 1026
- Score/TAT (SH-SY5Y cells): 1.977
- cell permeability compared with TAT (macrophages): higher cell permeability
- cell permeability compared with TAT (monocytes): higher cell permeability
- cell permeability compared with TAT (HGB cell line): higher cell permeability
- cell permeability compared with TAT (HDF cell line): higher cell permeability
- cell permeability compared with TAT (HeLa cell line): higher cell permeability
- cell permeability compared with TAT (HT1080 cell line): higher cell permeability
- cell permeability compared with TAT (HepG2 cell line): higher cell permeability
- cell permeability compared with TAT (HEK293T cell line): higher cell permeability
- cell permeability compared with TAT (A-427 cell line): higher cell permeability
- cell permeability compared with TAT (SNU-46 cell line): higher cell permeability

Sequence: ARLRVILRRRHPRR [C95]
- cell permeability compared with TAT (HaCAT cells): higher cell permeability
- cell permeability compared with TAT (SH-SY5Y cells): higher cell permeability
- Score (SH-SY5Y cells): 2417
- Score/TAT (SH-SY5Y cells): 4.657
- cell permeability compared with TAT (macrophages): higher cell permeability
- cell permeability compared with TAT (monocytes): higher cell permeability
- cell permeability compared with TAT (HGB cell line): higher cell permeability
- cell permeability, fold of TAT (HGB cell line): ≥ 2 fold
- cell permeability compared with TAT (HDF cell line): higher cell permeability
- cell permeability compared with TAT (HT1080 cell line): higher cell permeability
- cell permeability compared with TAT (HepG2 cell line): higher cell permeability
- cell permeability compared with TAT (HEK293T cell line): higher cell permeability
- cell permeability compared with TAT (A-427 cell line): higher cell permeability
- cell permeability compared with TAT (SNU-46 cell line): higher cell permeability

Sequence: TKRRKRRLRRRLTP [C52]
- cell permeability compared with TAT (HaCAT cells): increased cell permeability; also recorded: higher cell permeability
- cell permeability compared with TAT (SH-SY5Y cells): higher cell permeability
- Score (SH-SY5Y cells): 1328
- Score/TAT (SH-SY5Y cells): 2.559
- cell permeability compared with TAT (macrophages): higher cell permeability
- cell permeability compared with TAT (HDF cell line): higher cell permeability
- cell permeability compared with TAT (HeLa cell line): higher cell permeability
- cell permeability compared with TAT (HT1080 cell line): higher cell permeability
- cell permeability compared with TAT (HepG2 cell line): higher cell permeability
- cell permeability compared with TAT (HEK293T cell line): higher cell permeability
- cell permeability compared with TAT (A-427 cell line): higher cell permeability
- cell permeability compared with TAT (SNU-46 cell line): higher cell permeability
